Measurements as given in patent US9568449B2, “Dielectric spectroscopy methods and apparatus” (Bend Research, Inc., priority 2012, dated 2017).

Legend:
[1] = test system: first population of cells; test: Viability of a cell population after apoptosis induction with staurosporine; type: cell-based; conditions: 1 μM staurosporine added at day 14 of cell growth; compared with untreated control population; FIG. 19B
Description: FIG. 19A is a chart 1900 that illustrates the viability of cells (along the y-axis) in two different cell populations over a period of time (along the x-axis) in an example experiment corresponding to the method of FIG. 18. As shown, a first line 1910 indicates the viability of a first population of cells, which has apoptosis induced using addition of a staurosporine agent. In this case, a 1 μM concentration of staurosporine was used. A second line 1915 indicates the viability of a second population of cells, which is a control population that is not induced using a staurosporine agent.
At a designated time period, apoptosis is induced in the first population of cells by adding an apoptosis inducing agent to the environment.
FIG. 19B is a chart 1930 that illustrates viable cell density (VCD) (left y-axis) and cell viability percentage (right y-axis) plotted over time (x-axis) for the first and second measurements of the first and second populations of cells received at process block 1810 and 1820.

[2] = test system: first population of cells; test: Dielectric spectroscopy (normalized capacitance versus frequency) of an apoptosis-induced cell population; type: cell-based; conditions: from time of staurosporine addition (day 14) to 60 hours after addition; compared with slight drift in control; FIG. 19D
Excerpt: At process block 1810, data representing a number of measurements of an electrical property of a first population of cells are received. The measurements can be obtained by applying a frequency-varying signal (e.g., a sine wave having a frequency that is varied across a selected frequency range, or at two or more selected frequencies) to the population of cells while measuring an electrical property such as permittivity or capacitance. A number of selected frequencies can be used, for example, frequencies between 50 kHz and 10 MHz. The measured permittivity of the population of cells will vary depending on the frequency of the applied signal used to measure permittivity. For example, the permittivity can range from a high measurement of 4×10^−9 Farads per meter (F/m) at a low frequency of 50 kHz to a low measurement of 1×10^−11 F/m at a high frequency of 10 MHz. […] The cells can be mammalian cells (e.g. from the CHO or NS0 cell lines) suspended in a nutrient solution.
At process block 1830, the first set of measurements for the first population of cells and the second set of measurements for the second population of cells are compared.
The chart 1950 of FIG. 19D illustrates the first set of measurements obtained from the first population of cells that has an apoptosis-inducing agent added at day 14 of cell growth.

With `CN[C@@H]1C[C@H]2O[C@@](C)([C@@H]1OC)n1c3ccccc3c3c4c(c5c6ccccc6n2c5c31)C(=O)NC4` [staurosporine] the cell viability percentage [1] was “declining”, the “viable cell density (VCD)” value [1] was “declining” and the “shift of normalized capacitance versus frequency curve” value [2] was “more substantial drift to the right”.
